Target: T1, 14-3-3γ/ERRγ complex (Homo sapiens, UniProt P61981+P62508)
T1 construct: made in house; host or cells: E. coli NiCo21 (DE3)
Assay: FA compound titration in HEK293 cell lysate
Format: binding
Details: 2 mg mL^–1 HEK293 cell lysate, 5 μM 14-3-3γ, 100 nM ERRγ peptide; read-out: half-maximal complex concentration (CC50)
Method: The cell represents a complex biochemical environment composed of a high reducing potential, a pool of potential nucleophiles, and competing 14-3-3 interaction partners. To investigate molecular lock-induced complex formation in a reactive environment, we first investigated binary 14-3-3/ERRγ formation in the HEK293 cell lysate. Here, the HEK293 cell lysate was titrated to the preformed 14-3-3γ/ERRγ complex in an FA assay and incubated overnight (Figure S25a–c). […] Next, we investigated molecular lock 5-induced complex formation (Figures S25 and S26). […] Moreover, early observed cell lysate-induced abolishment of the 14-3-3γ/ERRγ complex formation was almost completely recovered upon addition of 5, to similar complex concentrations to that in the absence of the lysate. […]
Figure S25. […] (d -e) Fluorescence anisotropy studies of compound 5 (right) titrations or DMSO as negative control (left) to a preformed complex of 14 -3-3γ (5 µM, 0.16 mg/mL) and fluorescein labelled ERRγ peptide (100 nM) at various concentrations HEK293 cell lysate (up to 2 mg/mL). […]
Figure S26. […] Fluorescence anisotropy studies of compound 5 titrations (or DMSO as negative control) to a preformed complex of 14-3-3γ (5 µM) and fluorescein labelled ERRγ peptide (100 nM). Assay is performed in presence of various concentrations HEK293 cell lysate (up to 2 mg/mL) and is measured over time (every hour for 12 hours). […]

T1 sequence (P61981 whole entry, other chains not shown): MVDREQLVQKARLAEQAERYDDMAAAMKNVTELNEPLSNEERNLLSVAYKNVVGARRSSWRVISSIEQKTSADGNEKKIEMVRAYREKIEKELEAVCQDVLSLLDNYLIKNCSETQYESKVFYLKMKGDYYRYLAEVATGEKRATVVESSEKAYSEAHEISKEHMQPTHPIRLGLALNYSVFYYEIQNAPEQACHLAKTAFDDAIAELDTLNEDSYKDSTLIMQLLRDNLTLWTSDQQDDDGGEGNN

CN(C)CCSSCCN(C)C(=O)c1ccc(C=O)c(F)c1 [compound 5]
CC50: 240 µM

Source: article PMC10064330, “Reversible Dual-Covalent Molecular Locking of the 14-3-3/ERRγ Protein–Protein Interaction as a Molecular Glue Drug Discovery Approach” (Journal of the American Chemical Society, 2023)
